Data taken from patent US5182386A (priority 1991, dated 1993).
pIC50: −log10 of the molar value.

How the values were obtained:
GABA receptor = conditions: Tallman et al., 1978; cited from earlier work
GABAa receptor = GABAa receptor (benzodiazepine site) binding, displacement of 3H-RO15-1788 [3H-Flumazenil]; conditions: rat cortical tissue; 0.5 nM 3H-RO15-1788; 30 min at 4° C.
Method: Assays are carried out as described in Thomas and Tallman (J. Bio. Chem. 156: 9838-9842, J. Neurosci. 3:433-440, 1983). Rat cortical tissue is dissected and homogenized in 25 volumes (w/v) of 0.05M Tris HCl buffer (pH 7.4 at 4° C.). The tissue homogenate is centrifuged in the cold (4° ) at 20,000×g for 20'. The supernatant is decanted and the pellet is rehomogenized in the same volume of buffer and again centrifuged at 20,000×g. The supernatant is decanted and the pellet is frozen at -20° C. overnight. The pellet is then thawed and rehomogenized in 25 volume (original wt/vol) of buffer and the procedure is carried out twice. The pellet is finally resuspended in 50 volumes (w/vol of 0.05M Tris HCl buffer (pH 7.4 at […]).
Incubations contain […] of tissue homogenate, […] of radioligand 0.5 nM (^3 H-RO15-1788 [^3 H-Flumazenil] specific activity 80 Ci/mmol), drug or blocker and buffer to a total volume of […]. Incubations are carried for 30 min at 4° C. then are rapidly filtered through GFB filters to separate free and bound ligand. Filters are washed twice with fresh 0.05M Tris HCl buffer (pH 7.4 at 4° C. ) and counted in a liquid scintillation counter. […] diazepam is added to some tubes to determine nonspecific binding. Data are collected in triplicate determinations, averaged and % inhibition of total specific binding is calculated. Total Specific Binding=Total-Nonspecific. In some cases, the amounts of unlabeled drugs is varied and total displacement curves of binding are carried out. Data are converted to a form for the calculation of IC50 and Hill Coefficient (nH).

pIC50 (GABAa receptor)	SMILES	block of enhancement of benzodiazepine binding by GABA agonists (GABA receptor)
–	CN1CCc2cc3c(cc2C1C1OC(=O)c2c1ccc1c2OCO1)OCO3 (single isomer, unassigned; (+)) [(+) bicuculline]	blocked
–	CN1CCc2cc3c(cc2C1C1OC(=O)c2c1ccc1c2OCO1)OCO3 (single isomer, unassigned; (-)) [(-) bicuculline]	much less active
7.48	COc1ccc(-c2nc3c[nH]c4ccccc4n-3c2=O)cc1 [Compound 1, 2-(4-methoxyphenyl)-imidazo-[1,2-a]-quinoxalin-1(5H)-one]	–
7.15	COc1cccc(-c2nc3c[nH]c4ccccc4n-3c2=O)c1 [Compound 3, 2-(3-Methoxyphenyl)-imidazo-[1,2-a]-quinoxalin-1(5H)-one]	–

SMILES	pIC50 (GABAa receptor)	block of enhancement of benzodiazepine binding by GABA agonists (GABA receptor)
O=c1c(-c2ccccc2)nc2c[nH]c3ccccc3n1-2 [Compound 2, 2-Phenyl-imidazo-[1,2-a]-quinoxalin-1(5H)-one]	7.48	–
